Where two headings read alike, the source gives them in different places. Each block holds one compound with its values, some of them ahead of it.
Columns and labels:
human GIVA cPLA2 = biological target: T1, human GIVA cPLA2 (Homo sapiens, UniProt P47712); test: lipidomics-based mixed micelle assay, GIVA cPLA2; assay type: biochemical; conditions: for GIVA cPLA2 XI(50): separated trans/cis diastereomers, lipidomics-based assay
T1 sequence (P47712 1-749): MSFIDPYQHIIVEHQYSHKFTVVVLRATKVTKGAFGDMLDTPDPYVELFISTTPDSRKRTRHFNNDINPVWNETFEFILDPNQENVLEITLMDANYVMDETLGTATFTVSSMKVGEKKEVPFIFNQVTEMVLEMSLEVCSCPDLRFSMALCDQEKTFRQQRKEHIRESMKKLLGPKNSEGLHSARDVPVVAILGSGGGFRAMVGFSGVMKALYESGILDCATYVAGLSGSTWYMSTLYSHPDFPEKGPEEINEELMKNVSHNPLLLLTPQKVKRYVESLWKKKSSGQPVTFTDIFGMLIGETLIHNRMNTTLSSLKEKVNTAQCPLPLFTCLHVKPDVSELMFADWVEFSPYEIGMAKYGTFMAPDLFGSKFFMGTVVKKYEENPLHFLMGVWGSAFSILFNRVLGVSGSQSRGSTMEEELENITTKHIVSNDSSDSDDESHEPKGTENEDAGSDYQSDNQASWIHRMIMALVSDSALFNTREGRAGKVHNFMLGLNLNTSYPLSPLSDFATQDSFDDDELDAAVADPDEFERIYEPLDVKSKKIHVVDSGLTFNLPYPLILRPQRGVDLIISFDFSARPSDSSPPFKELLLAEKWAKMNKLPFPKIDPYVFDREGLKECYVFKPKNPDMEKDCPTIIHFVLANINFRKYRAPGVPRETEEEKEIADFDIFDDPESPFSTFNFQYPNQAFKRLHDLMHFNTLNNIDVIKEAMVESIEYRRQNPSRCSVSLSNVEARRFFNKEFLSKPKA

[1] = biological target: T2, recombinant human GVIA iPLA2 (Homo sapiens, UniProt O60733); test: lipidomics-based mixed micelle assay, GVIA iPLA2; assay type: biochemical
T2 sequence (O60733 1-806): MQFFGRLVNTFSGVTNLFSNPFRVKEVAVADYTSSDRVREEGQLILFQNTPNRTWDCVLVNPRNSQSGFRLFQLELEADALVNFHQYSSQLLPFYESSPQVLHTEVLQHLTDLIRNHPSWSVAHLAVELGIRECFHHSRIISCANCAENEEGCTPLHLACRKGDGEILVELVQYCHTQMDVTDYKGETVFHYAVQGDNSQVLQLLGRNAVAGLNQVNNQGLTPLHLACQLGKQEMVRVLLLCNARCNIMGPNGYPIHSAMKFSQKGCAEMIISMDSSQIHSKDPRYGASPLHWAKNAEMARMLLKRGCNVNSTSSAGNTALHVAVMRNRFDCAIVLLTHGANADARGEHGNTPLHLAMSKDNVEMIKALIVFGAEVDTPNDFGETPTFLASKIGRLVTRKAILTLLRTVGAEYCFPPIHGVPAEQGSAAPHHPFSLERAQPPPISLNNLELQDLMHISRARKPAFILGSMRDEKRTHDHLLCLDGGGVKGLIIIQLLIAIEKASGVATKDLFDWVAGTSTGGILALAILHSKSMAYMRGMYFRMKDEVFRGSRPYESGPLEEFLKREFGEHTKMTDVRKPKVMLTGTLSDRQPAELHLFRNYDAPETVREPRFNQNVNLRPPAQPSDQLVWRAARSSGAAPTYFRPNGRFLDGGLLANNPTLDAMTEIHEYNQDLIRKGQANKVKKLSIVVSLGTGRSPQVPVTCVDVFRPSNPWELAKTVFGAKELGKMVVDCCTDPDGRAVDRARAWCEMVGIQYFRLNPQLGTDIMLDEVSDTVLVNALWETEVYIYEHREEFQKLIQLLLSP

INS-1 cells = assay type: cell-based
[2] = biological target: T2, recombinant human GVIA iPLA2; conditions: cited from earlier work; for GVIA iPLA2 XI(50): radioactivity-based assay
β-cell = conditions: cited from earlier work

SMILES: CCC[C@@H]1OC(=O)[C@@H]1CCCc1ccccc1 (racemic) [cis-9d, cis-(±)-3-(3-Phenylpropyl)-4-propyloxetan-2-one]
IC50 (human GIVA cPLA2): 950 nM
GIVA cPLA2 XI(50) (human GIVA cPLA2): 0.0019 mole fraction

SMILES: CCC[C@@H]1OC(=O)[C@@H]1CCCc1ccc(OC)cc1 (racemic) [cis-9f, cis-(±)-3-(3-(4-Methoxyphenyl)propyl)-4-propyloxetan-2-one]
IC50 [1]: 20000 nM
IC50 (human GIVA cPLA2): 20 nM
times more potent for GIVA cPLA2 than for GVIA iPLA2 (human GIVA cPLA2; GIVA cPLA2 over GVIA iPLA2): ~1000 times
GIVA cPLA2 XI(50) (human GIVA cPLA2): 0.00004 mole fraction

SMILES: CCC[C@@H]1OC(=O)[C@@H]1CCCCc1ccc2ccccc2c1 (racemic) [cis-9j, cis-(±)-3-(4-(Naphthalen-2-yl)butyl)-4-propyloxetan-2-one]
IC50 [1]: 1000 nM

SMILES: O=C(CCCCc1ccccc1)C(F)(F)C(F)(F)F [2a]
GVIA iPLA2 XI(50) ([2]; listed as FKGK11): 0.0014 mole fraction

SMILES: COc1ccc(CCCCC(=O)C(F)(F)C(F)(F)F)cc1 [2b]
GVIA iPLA2 XI(50) ([2]; listed as GK187): 0.0001 mole fraction

SMILES: O=C(CCCCc1ccc2ccccc2c1)C(F)(F)F [compound 3]
times more potent for GVIA iPLA2 than for GIVA cPLA2 [2]: 195 times
times more potent for GVIA iPLA2 than for GV sPLA2 [2]: > 455 times
inhibition of β-cell apoptosis (β-cell): able to inhibit β-cell apoptosis

SMILES: COc1ccc(CCSCC(=O)c2noc(C(C)(C)C)n2)cc1 [compound 4]
GVIA iPLA2 XI(50) [2]: 0.0057 mole fraction

Further lines, with some results ahead:

IC50 [1]: 95 nM
SMILES: CCC[C@H]1OC(=O)[C@@H]1CCCc1ccccc1 (racemic) [trans-9d, trans-(±)-3-(3-Phenylpropyl)-4-propyloxetan-2-one]

IC50 [1]: 150 nM
SMILES: CCC[C@H]1OC(=O)[C@@H]1CCCc1ccc2ccccc2c1 (racemic) [trans-9e, trans-(±)-3-(3-(Naphthalen-2-yl)propyl)-4-propyloxetan-2-one]

IC50 [1]: 95 nM
SMILES: CCC[C@H]1OC(=O)[C@@H]1CCCc1ccc(OC)cc1 (racemic) [trans-9f, trans-(±)-3-(3-(4-Methoxyphenyl)propyl)-4-propyloxetan-2-one]

times more active against GVIA iPLA2 than GIVA cPLA2 (selectivity) ([1]; GVIA iPLA2 over GIVA cPLA2): 22,000 times
potency on GVIA iPLA2 relative to FKGK18 ([1]; compared with fluoroketone FKGK18): a hundred times more potent
GIVA cPLA2 XI(50) (human GIVA cPLA2): 0.042 mole fraction
SMILES: CCC[C@H]1OC(=O)[C@@H]1CCCCc1ccccc1 (racemic) [trans-9k, trans-(±)-3-(4-Phenylbutyl)-4-propyloxetan-2-one]
inhibition (decrease) of cytokine-induced β-cell apoptosis (INS-1 cells; 0.10 μM, co-treatment with IL-1β + IFNγ, 16 h): minimal and non-significant effect
cytotoxicity on continuous exposure, compound alone (INS-1 cells; 0.10 or 1.0 μM, no cytokines): not cytotoxic

From article PMC6767909 (Journal of medicinal chemistry, 2019)
